Results as given in PMC5642506 (Oncotarget, 2017).
Where two headings read alike, the source gives them in different places.

Key:
[1] = tested on: pretreated nonsquamous lung cancer; set-up: method as in PMID 27697581; settings: cited from earlier work
[2] = Dose escalation: DLT and recommended phase II dose; set-up: species or system human (patients); settings: human, in vivo
Method: (§1) In this dose-finding phase I trial, escalating doses of foretinib were added to standard dose erlotinib as continuous daily dosing. Patients were permitted to remain on study treatment until the development of disease progression, unacceptable toxicity or withdrawal of consent. To facilitate pharmacokinetic studies and ensure tolerability of standard therapy, patients received erlotinib alone daily for 14 days during cycle 1, and foretinib was initiated on day 15, cycle 1 if erlotinib was well tolerated. Daily dosing for both agents thereafter was continuous.
Toxicity was evaluated continuously according to the Common Terminology Criteria for Adverse Events (CTCAE), Version 4.0. […] If 1/3 experienced DLT, at least 3 additional patients were treated for a total of 6 evaluable patients treated at that dose level. If 2/3 or 2/6 patients experienced DLT, dose escalation was to be stopped and that dose declared the maximum tolerated dose (MTD), with the next lower dose to be declared the recommended phase II dose for foretinib in combination with erlotinib. While designed as a 3+3 dose escalation study, 3+4 was allowed to ensure that there would be a minimum of 3 evaluable patients without having to reopen a cohort to replace a patient. Intra-patient dose escalation was not allowed. […]

[3] = Pharmacokinetic analyses (plasma, non-compartmental); format: in vivo, human (patients)
Method: Patients underwent history and physical examination, performance status, measurement of vital signs, routine hematology and biochemistry studies, thyroid studies and tumor imaging with computed tomography scans at baseline. Blood pressure monitoring and bloodwork was repeated weekly during cycle 1 and then on day 1 of each subsequent cycle. Patients were assessed on day 1 of each subsequent cycle and as needed for toxicity management. Tumor assessment with imaging was performed at every second cycle (8 weeks). Urinalysis was performed on day 1 of each cycle, ophthalmologic examination every 12 weeks, and pharmacokinetic sampling on day 14 and 28 of cycle 1.
Patients were required not to smoke or chew tobacco products for at least 14 days prior to study entry, and to abstain at least until the completion of pharmacokinetic sampling on day 28 of cycle 1.

[4] = tested on: pretreated EGFR wild type NSCLC; set-up: method as in PMID 27825638; settings: cited from earlier work
[5] = Treatment delivery, dose intensity, discontinuation; format: in vivo, human (patients)
Method: as §1

[6] = tested on: EGFR mutant lung cancer cells with upregulated HGF and increased MET copy number; set-up: method as in earlier work; settings: preclinical studies; cited from earlier work
[7] = Erlotinib D14, DL1 erlotinib 100 mg daily alone, N=6
[8] = Erlotinib D14, DL2 erlotinib 150 mg daily alone, N=9
[9] = Erlotinib D14, DL3 erlotinib 150 mg daily alone, N=7
[10] = Erlotinib D28, DL1 erlotinib 100 mg + foretinib 30 mg daily, N=7
[11] = Erlotinib D28, DL2 erlotinib 150 mg + foretinib 30 mg daily, N=11
[12] = Erlotinib D28, DL3 erlotinib 150 mg + foretinib 45 mg daily, N=6
[13] = human, plasma, oral, 100 mg, Erlotinib D14, DL1 erlotinib 100 mg daily alone, N=6
[14] = human, plasma, oral, 150 mg, Erlotinib D14, DL2 erlotinib 150 mg daily alone, N=9
[15] = human, plasma, oral, 150 mg, Erlotinib D14, DL3 erlotinib 150 mg daily alone, N=7
[16] = human, plasma, oral, Erlotinib D28, DL1 erlotinib 100 mg + foretinib 30 mg daily, N=7
[17] = human, plasma, oral, Erlotinib D28, DL2 erlotinib 150 mg + foretinib 30 mg daily, N=11
[18] = human, plasma, oral, Erlotinib D28, DL3 erlotinib 150 mg + foretinib 45 mg daily, N=6
[19] = Foretinib D28, DL1 foretinib 30 mg + erlotinib 100 mg daily, N=7
[20] = Foretinib D28, DL2 foretinib 30 mg + erlotinib 150 mg daily, N=11
[21] = Foretinib D28, DL3 foretinib 45 mg + erlotinib 150 mg daily, N=6
[22] = human, plasma, oral, Foretinib D28, DL1 foretinib 30 mg + erlotinib 100 mg daily, N=7
[23] = human, plasma, oral, Foretinib D28, DL2 foretinib 30 mg + erlotinib 150 mg daily, N=11
[24] = human, plasma, oral, Foretinib D28, DL3 foretinib 45 mg + erlotinib 150 mg daily, N=6

In the case of `C[C@@H](Oc1cc(-c2cnn(C3CCNCC3)c2)cnc1N)c1c(Cl)ccc(F)c1Cl` [crizotinib], the “RP2D, crizotinib” value ([1]; BID, plus erlotinib 100 mg daily) is given as 150 mg.
For `C#Cc1cccc(Nc2ncnc3cc(OCCOC)c(OCCOC)cc23)c1` [erlotinib], the “recommended phase II dose, erlotinib” value [2] is given as 150 mg, the “RP2D, erlotinib” value ([1]; daily, plus crizotinib 150 mg BID) is given as 100 mg and the “erlotinib exposure, pharmacokinetic interaction” value ([1]; with crizotinib) is given as “increased erlotinib exposure”. The Cavg [3, 7] was 1254 (SD 622) ng/mL, the Clast [3, 7] was 1106 (SD 710) ng/mL and the Cmax [3, 7] was 1719 (SD 624) ng/mL. The “Cmax Dose Norm” value [3, 7] was 17.2 (SD 6.24) ng/mL/mg, the Cmin [3, 7] was 815 (SD 641) ng/mL and the Tmin [3, 7] was 4.17 (SD 9.71) hr. For the same compound, the Cavg [3, 8] was 1466 (SD 507) ng/mL, the Clast [3, 8] was 1137 (SD 419) ng/mL and the Cmax [3, 8] was 2335 (SD 770) ng/mL. The “Cmax Dose Norm” value [3, 8] was 15.6 (SD 5.13) ng/mL/mg, the Cmin [3, 8] was 1047 (SD 437) ng/mL and the Tmin [3, 8] was 13.33 (SD 12.65) hr. For the same compound, the Cavg [3, 9] was 1548 (SD 621) ng/mL, the Clast [3, 9] was 1247 (SD 565) ng/mL and the “Cmax Dose Norm” value [3, 9] was 14.91 (SD 4.14) ng/mL/mg. The Cmin [3, 9] was 1027 (SD 507) ng/mL, the Tmin [3, 9] was 4.71 (SD 8.77) hr and the Cavg [3, 10] was 1497 (SD 975) ng/mL. For the same compound, the Clast [3, 10] was 1300 (SD 861.44) ng/mL, the Cmax [3, 10] was 2387 (SD 1707) ng/mL and the “Cmax Dose Norm” value [3, 10] was 23.87 (SD 17.07) ng/mL/mg. The Cmin [3, 10] was 1092 (SD 894) ng/mL, the Tmin [3, 10] was 11.2 (SD 12.07) hr and the Cavg [3, 11] was 1579 (SD 643) ng/mL. For the same compound, the Clast [3, 11] was 1343 (SD 687) ng/mL, the “Cmax Dose Norm” value [3, 11] was 17.64 (SD 6.49) ng/mL/mg and the Cmin [3, 11] was 1293 (SD 688) ng/mL. For the same compound, the Tmin [3, 11] was 13.27 (SD 12.34) hr, the AUCt [3, 12] was 40765 (SD 16673) ng*hr/mL and the Cavg [3, 12] was 1699 (SD 695) ng/mL. The Clast [3, 12] was 1283 (SD 697) ng/mL, the “Cmax Dose Norm” value [3, 12] was 16.48 (SD 4.78) ng/mL/mg and the Cmin [3, 12] was 1244 (SD 725) ng/mL. For the same compound, the Tmin [3, 12] was 16.17 (SD 12.14) hr, the AUC(0-t) [3, 13] was 30100 ng·h/mL and the Tmax [3, 13] was 7.67 h. The clearance [3, 13] was 28.6 mL/min, the AUC(0-t) [3, 14] was 35200 ng·h/mL and the Tmax [3, 14] was 2.22 h. It also gave a clearance [3, 14] of 85.4 mL/min, an AUC(0-t) [3, 15] of 35500 ng·h/mL and a Tmax [3, 15] of 3.86 h. For the same compound, the clearance [3, 15] was 79.9 mL/min, the Cmax ([3]; human, plasma, oral, 150 mg, Erlotinib D14, DL3 erlotinib 150 mg daily alone, N=7, read-out: Cmax) was 2240 ng/mL and the AUC(0-t) [3, 16] was 35900 ng·h/mL. It also gave a Tmax [3, 16] of 2.29 h, a clearance [3, 16] of 33.9 mL/min and an AUC(0-t) [3, 17] of 36200 ng·h/mL. The Tmax [3, 17] was 2.64 h, the clearance [3, 17] was 76.1 mL/min and the Tmax [3, 18] was 2.33 h. For the same compound, the clearance [3, 18] was 76.2 mL/min, the Cmax ([3]; human, plasma, oral, Erlotinib D28, DL3 erlotinib 150 mg + foretinib 45 mg daily, N=6, read-out: Cmax) was 2470 ng/mL and the PFS [4] was 1.8 months. For the same compound, the “% receiving >=90% planned dose intensity, Erlotinib” value ([5]; DL1 (N=9), 30/100 mg) was 78%, the “% receiving >=90% planned dose intensity, Erlotinib” value ([5]; DL2 (n=15), 30/150 mg) was 40% and the “% receiving >=90% planned dose intensity, Erlotinib” value ([5]; DL3 (N=7), 45/150 mg) was 43%.
In the case of `COc1cc2c(Oc3ccc(NC(=O)C4(C(=O)Nc5ccc(F)cc5)CC4)cc3F)ccnc2cc1OCCCN1CCOCC1` [foretinib], the “recommended phase II dose, foretinib” value [2] is listed as 30 mg, the “sensitivity when added to erlotinib” value [6] is listed as “significantly increases sensitivity” and the Cavg [3, 19] is listed as 30.35 (SD 9.23) ng/mL. The Clast [3, 19] was 27.29 (SD 10.66) ng/mL, the “Cmax Dose Norm” value [3, 19] was 1.45 (SD 0.59) ng/mL/mg and the Cmin [3, 19] was 22.79 (SD 7.74) ng/mL. The Tmin [3, 19] was 12.29 (SD 11.34) hr, the Cavg [3, 20] was 29.17 (SD 13.58) ng/mL and the Clast [3, 20] was 24.12 (SD 9.34) ng/mL. The “Cmax Dose Norm” value [3, 20] was 1.49 (SD 0.74) ng/mL/mg, the Cmin [3, 20] was 22.47 (SD 10.61) ng/mL and the Tmin [3, 20] was 13.36 (SD 12.23) hr. The Cavg [3, 21] was 42.07 (SD 17.31) ng/mL, the Clast [3, 21] was 34.22 (SD 17.3) ng/mL and the “Cmax Dose Norm” value [3, 21] was 1.21 (SD 0.4) ng/mL/mg. The Cmin [3, 21] was 31.96 (SD 18.16) ng/mL, the Tmin [3, 21] was 12.0 (SD 13.15) hr and the AUC(0-t) [3, 22] was 728 ng·h/mL. For the same compound, the Tmax [3, 22] was 3.14 h, the clearance [3, 22] was 419 mL/min and the Cmax ([3]; human, plasma, oral, Foretinib D28, DL1 foretinib 30 mg + erlotinib 100 mg daily, N=7, read-out: Cmax) was 43.4 ng/mL. The AUC(0-t) [3, 23] was 681 ng·h/mL, the Tmax [3, 23] was 3.55 h and the clearance [3, 23] was 492 mL/min. It also gave a Cmax ([3]; human, plasma, oral, Foretinib D28, DL2 foretinib 30 mg + erlotinib 150 mg daily, N=11, read-out: Cmax) of 44.8 ng/mL, an AUC(0-t) [3, 24] of 1010 ng·h/mL and a Tmax [3, 24] of 3.5 h. The clearance [3, 24] was 829 mL/min, the Cmax ([3]; human, plasma, oral, Foretinib D28, DL3 foretinib 45 mg + erlotinib 150 mg daily, N=6, read-out: Cmax) was 55.9 ng/mL and the “% receiving >=90% planned dose intensity, Foretinib Cycle 1” value ([5]; DL1 (N=9), 30/100 mg) was 100%. For the same compound, the “% receiving >=90% planned dose intensity, Foretinib Cycle >= 2” value ([5]; DL1 (N=9), 30/100 mg) was 50%, the “% receiving >=90% planned dose intensity, Foretinib Cycle 1” value ([5]; DL2 (n=15), 30/150 mg) was 67% and the “% receiving >=90% planned dose intensity, Foretinib Cycle >= 2” value ([5]; DL2 (n=15), 30/150 mg) was 31%. The “% receiving >=90% planned dose intensity, Foretinib Cycle 1” value ([5]; DL3 (N=7), 45/150 mg) was 86% and the “% receiving >=90% planned dose intensity, Foretinib Cycle >= 2” value ([5]; DL3 (N=7), 45/150 mg) was 0.
